Experimental findings from patent US10118921B2, “Diarylmethylidene piperidine derivatives and their use as delta opoid receptor agnists” (PHARMNOVO AB, priority 2014, dated 2018) are described below.

Structures are written as SMILES.

Holding throughout (assay type): cell-based
The target in test [1] is kappa-opioid receptor (Rattus norvegicus, UniProt P34975). Nature of the test: Selectivity versus kappa-opioid receptor, Cerep cAMP evaluation. Particulars: ratio kappa/delta. An excerpt: (§1) cAMP measurements will be made in δ-opioid-expressing CHO cells exposed to increasing agonist concentrations using DiscoveRx cAMP Hunter™ assay kits. β-arrestin recruitment will be measured in the presence of increasing agonist concentrations using DiscoveRx Pathunter® kits. Selectivity of mu- and kappa-opioid receptors will be performed using Cerep cAMP evaluation from ref. 1392 and 2071 (Cerep Le Bois l'Evéque, 86600 Celle l'Evescault, France).

Test [2] addresses T1, δ-opioid receptor (DOR) (Homo sapiens, UniProt P41143). Nature of the test: β-arrestin recruitment (DiscoveRx Pathunter).
Source text: (§2) δ-opioid receptors (DOR) are coupled to inhibitory G proteins (Gi/o) which inhibit adenylyl cyclase activity, open K^+ channels and block Ca^2+ channels. They can also couple, in an agonist-dependent manner to β-arrestin 2, which lead to desensitization, and to MAP kinase (ERK) phosphorylation.
(§3) In Vitro Assessment of δ-Opioid Agonist Potency: […]
as §1
In general terms: Arrestin recruitment assays detect the binding of arrestin to an activated receptor.

Test [3] addresses mu-opioid receptor (Homo sapiens, UniProt P35372). Nature of the test: Selectivity versus mu-opioid receptor, Cerep cAMP evaluation. Particulars: ratio mu/delta.
Source text: as §1

Test [4] has as its target T1, δ-opioid receptor (DOR). Description: cAMP measurement in δ-opioid-expressing CHO cells (DiscoveRx cAMP Hunter).
Source text: as §2, §3, §1

The mark [5] stands for this setting: β-arrestin recruitment, agonist potency, read-out: EC-50 beta-arrestin.
Where [6] appears, read: δ-opioid-expressing CHO cells, agonist potency, read-out: EC-50 cAMP.

Chain of kappa-opioid receptor (P34975 whole entry): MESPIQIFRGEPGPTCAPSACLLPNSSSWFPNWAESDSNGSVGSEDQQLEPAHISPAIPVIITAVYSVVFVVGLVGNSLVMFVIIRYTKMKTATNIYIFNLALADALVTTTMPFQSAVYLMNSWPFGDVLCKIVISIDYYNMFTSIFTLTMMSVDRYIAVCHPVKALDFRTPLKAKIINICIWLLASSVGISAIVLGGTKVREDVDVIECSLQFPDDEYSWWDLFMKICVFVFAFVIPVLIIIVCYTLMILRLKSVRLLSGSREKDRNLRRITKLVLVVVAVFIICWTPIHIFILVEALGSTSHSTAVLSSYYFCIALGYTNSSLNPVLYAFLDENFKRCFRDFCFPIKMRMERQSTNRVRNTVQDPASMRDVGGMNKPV
T1 sequence (P41143 whole entry): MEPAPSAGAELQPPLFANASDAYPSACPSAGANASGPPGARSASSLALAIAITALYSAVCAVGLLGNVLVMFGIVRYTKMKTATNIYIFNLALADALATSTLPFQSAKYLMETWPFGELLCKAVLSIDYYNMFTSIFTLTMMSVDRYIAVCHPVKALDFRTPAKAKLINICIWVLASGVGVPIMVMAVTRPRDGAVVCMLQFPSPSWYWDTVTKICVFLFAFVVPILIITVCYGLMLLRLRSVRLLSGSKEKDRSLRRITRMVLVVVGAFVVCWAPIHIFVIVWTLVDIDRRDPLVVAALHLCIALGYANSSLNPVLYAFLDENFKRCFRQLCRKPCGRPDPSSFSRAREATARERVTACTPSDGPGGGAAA
Chain of mu-opioid receptor (P35372 whole entry): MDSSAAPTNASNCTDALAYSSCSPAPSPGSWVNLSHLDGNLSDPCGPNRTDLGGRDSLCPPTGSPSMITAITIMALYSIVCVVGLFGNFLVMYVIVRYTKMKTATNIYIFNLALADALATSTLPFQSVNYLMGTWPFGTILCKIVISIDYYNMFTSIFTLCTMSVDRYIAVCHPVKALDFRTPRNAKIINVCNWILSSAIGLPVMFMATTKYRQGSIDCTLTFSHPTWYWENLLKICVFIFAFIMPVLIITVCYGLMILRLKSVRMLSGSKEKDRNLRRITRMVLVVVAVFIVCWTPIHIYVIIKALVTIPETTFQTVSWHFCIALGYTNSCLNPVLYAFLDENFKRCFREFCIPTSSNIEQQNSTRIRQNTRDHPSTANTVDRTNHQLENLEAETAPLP

`CN(C)C(=O)c1ccc(C(=C2CCN(Cc3ccc(C(F)(F)F)nc3)CC2)c2cccc(C(N)=O)c2)cc1` [Example 1a, 4-[(3-Carbamoylphenyl)(1-{[6-(trifluoromethyl)pyridin-3-yl]methyl}piperidin-4-ylidene)methyl]-N,N-dimethylbenzamide]: the “Selectivity (kappa/delta)” value in test [1] was found to be 360. Further, the EC50 in test [2] (setting [5]) was 28 nM; in test [4] (setting [6]) it was 2.8 nM. For the same compound, in test [3], the “Selectivity (mu/delta)” value was found to be 360.
As for `CN(C)C(=O)c1ccc(C(=C2CCN(Cc3cncs3)CC2)c2cccc(C(N)=O)c2)cc1` [Example 1b, 4-[(3-Carbamoylphenyl)[1-(1,3-thiazol-5-ylmethyl)piperidin-4-ylidene]methyl]-N,N-dimethylbenzamide], the “Selectivity (kappa/delta)” value in test [1] was 1000. Besides, the EC50 in test [2] stood at 4 nM; in test [4] it was 0.5 nM. Also, the “Selectivity (mu/delta)” value in test [3] is reported as 100000.
For the compound `Cc1nc[nH]c1CN1CCC(=C(c2ccc(C(=O)N(C)C)cc2)c2cccc(C(N)=O)c2)CC1` [Example 1c, 4-[(3-Carbamoylphenyl)({1-[(4-methyl-1H-imidazol-5-yl)methyl]piperidin-4-ylidene})methyl]-N,N-dimethylbenzamide], the “Selectivity (kappa/delta)” value in test [1] is given as 1000. The EC50 in test [2] (setting [5]) was 3 nM; in test [4] (setting [6]), 0.5 nM. Moreover, in test [3], the “Selectivity (mu/delta)” value is 1000.
